Assay results: patent US7115584B2, “HIV-1 mutations selected for by β-2′,3′-didehydro-2′,3′-dideoxy-5-fluorocytidine” (priority 1999, dated 2006)
Like-named read-outs stand apart in the source and are kept apart here.

Legend:
HIV-1LAV = assay: Effect against HIV-1 and cloned viruses in human PBM cells; format: cell-based
M184VPITT = assay: as above; format: cell-based
T215YPITT = assay: as above; format: cell-based
[1] = system: G2-2PITT (103N, 41L, 184V, 210W, others); assay: Effect against cloned viruses, in MT-2 cells; format: cell-based, HIV-1; set-up: unit not given beside the values
xxBRUPITT = assay: Effect against HIV-1 and cloned viruses in human PBM cells; format: cell-based
M184V/T215YPITT = assay: as above; format: cell-based
215/41PITT = assay: as above; format: cell-based
[2] = system: 4X AZTPITT (67N, 70R, 215Y, 219Q); assay: as above; format: cell-based
[3] = system: acutely infected human PBM cells; assay: Median effect and combination index analysis, alone and in combination; format: cell-based; conditions: PBMC, 144 h
[4] = EC50 resistant virus vs HIV-1LAV or xxBRUPITT, listed as β-D-D4FC

Structure (SMILES): Nc1nc(=O)n([C@H]2C=C[C@@H](CO)O2)cc1F [β-L-D4FC, β-2′,3′-didehydro-2′,3′-dideoxy-5-fluorocytidine]
- EC50 (HIV-1LAV): 34 nM
- EC90 (HIV-1LAV): 160 nM
- EC50 (M184VPITT; human PBM cells): 3660 nM
- EC90 (M184VPITT; human PBM cells): 14300 nM
- EC50 (T215YPITT): 4.7 nM
- EC90 (T215YPITT): 30 nM
- FI50 [1]: >47
- EC50 (xxBRUPITT): 25 nM
- EC90 (xxBRUPITT): 88 nM
- EC50 (M184V/T215YPITT; human PBM cells): 8300 nM
- EC90 (M184V/T215YPITT; human PBM cells): 74600 nM
- EC50 (215/41PITT; human PBM cells): 18 nM
- EC90 (215/41PITT; human PBM cells): 66 nM

Structure (SMILES): Nc1nc(=O)n([C@H]2C=C[C@@H](CO)O2)cc1F [D-D4FC, β-2′,3′-didehydro-2′,3′-dideoxy-5-fluorocytidine]
- EC50 (HIV-1LAV; listed as β-D-D4FC): 220 nM
- EC90 (HIV-1LAV; listed as β-D-D4FC): 1320 nM
- FI50 (M184VPITT; [4]): 2
- FI50 ([1]; listed as β-D-D4FC): 0.2
- FI50 (M184V/T215YPITT; [4]): 1
- FI90 (M184V/T215YPITT; EC90 resistant virus vs HIV-1LAV or xxBRUPITT, listed as β-D-D4FC): 1
- FI90 (215/41PITT; EC90 resistant virus vs HIV-1LAV or xxBRUPITT): 1
- FI50 ([2]; 4X AZTPITT, EC50 resistant virus vs HIV-1LAV or xxBRUPITT): 1
- FI90 ([2]; 4X AZTPITT, EC90 resistant virus vs HIV-1LAV or xxBRUPITT): 1
- EC90 ([2]; human PBM cells, 4X AZTPITT (67N, 70R, 215Y, 219Q), listed as β-D-D4FC): 460 nM

Structure (SMILES): Cc1cn([C@H]2C[C@H](N=[N+]=[N-])[C@@H](CO)O2)c(=O)[nH]c1=O [AZT, 3′-azido-3′-deoxythymidine]
- EC90 [3]: 32 nM
